From PubChem BioAssay AID2305 (GlaxoSmithKline (GSK), 2010)
Values joined by “and” are separate entries in the source; they are usually repeats but may differ in a detail not shown here. Equal entries are not always repeated.

Each compound was assayed on P. falciparum 3D7 growth, pLDH absorbance (assay: P. falciparum 3D7 growth inhibition, dose response, strain 3D7 (AID 2305)).

SMILES	IC50
CC[C@H]1CN2CCc3cc(OC)c(OC)cc3[C@@H]2C[C@@H]1C[C@H]1NCCc2c1cc(OC)c(O)c2Cl	140 nM
CCN(CC)C(=O)c1cccc(/C=C/c2ccc(-c3c(C)[nH]c(C)c(Cl)c3=O)cc2)c1	260 nM
N#Cc1cc([N+](=O)[O-])ccc1-n1nc(-c2cccc(Cl)c2)n(CC2CCCO2)c1=S (stereo not drawn)	910 nM
CN1CCN(CC(=O)Nc2ccc(-c3ccc(-c4nc5ccccc5[nH]4)cc3)cc2)CC1	700 nM
O=C(Nc1ccc(-c2nc3ccccc3[nH]2)cc1)c1ccc(Cl)s1	590 nM
Cc1cccc2[nH]c(-c3ccc(-c4cccc(NC(=O)c5cccc(C(N)=O)c5)c4)cc3)nc12	1130 nM
C=Cc1sc(CNCCCNc2cc(=O)c3ccccc3[nH]2)c(C)c1Br	1050 nM
CCNc1cc(C(=O)N[C@@H](Cc2ccccc2)[C@H](O)CNCc2ccc3c(c2)OCCO3)cc(N2CCCCS2(=O)=O)c1	1350 nM
COc1cc(Cc2cnc(N)nc2N)cc(OCCCCNS(=O)(=O)C(F)(F)F)c1OC	1040 nM
Cc1cccc2[nH]c(-c3ccc(-c4ccc(CN5CCOCC5)cc4)cc3)nc12	820 nM
CC(=O)N(Cc1ccc(CC(C)NCCc2cccc(Cl)c2)cc1)Cc1ccc(CC(C)NCCc2cccc(Cl)c2)cc1 (stereo not drawn)	780 nM
Oc1ccc(-c2nc3c4cc(I)ccc4c4ccc(I)cc4c3[nH]2)cc1	970 nM
NC(=O)CNC(=O)CCCN=C(N)N	170 nM
Cc1ccc(-n2nc3ccc(NC(=O)c4ccc([N+](=O)[O-])o4)cc3n2)cc1C	400 nM
CCc1cccc(-n2nc(OCC(=O)NC3CCCC3)c3cccnc32)c1	930 nM
O=C(/C=C/c1ccccc1O)NCCCCCN1CCC(c2c[nH]c3ccccc23)CC1	830 nM
COc1ccc2c(c1)c(C1CCN(CCCCNC(=O)c3ccc(-c4ccc(C(F)(F)F)cc4)cc3)CC1)cn2C(C)C	730 nM
O=C(/C=C/c1ccc(Cl)c(Cl)c1)NC1CCC(CN2CCC(c3c[nH]c4cc(C(F)(F)F)ccc34)CC2)CC1 (stereo not drawn)	900 nM and 280 nM
O=S(=O)(c1c(Cl)cc(Cl)cc1Cl)N1CCCCC(c2ccc(Cl)cc2)=N1	400 nM
Cc1ccc(Nc2nc(NN=Cc3cc4c(cc3Br)OCO4)nc(Nc3ccc([N+](=O)[O-])cc3)n2)cc1C	750 nM
CC1(CCCCN2CCC(c3c[nH]c4cnccc34)CC2)C(=O)Nc2cccc(Cl)c21 (stereo not drawn)	870 nM
Fc1ccc2nc(-c3cccc(-c4ccc(CN5CCN(c6cnccn6)CC5)cc4)c3)[nH]c2c1	890 nM
COc1cc2nc(N3CCC(CNC(=O)c4ccc(-c5ccc(-c6noc(C)n6)cc5)cc4)CC3)nc(N)c2cc1OC	140 nM
Cc1cccc2[nH]c(-c3ccc(-c4cccc(CN5CCCC(N)C5)c4)s3)nc12 (stereo not drawn)	540 nM

SMILES	IC50
CCCCNC[C@@H](O)[C@H](Cc1ccccc1)NC(=O)c1cc(NCC)cc(N2CCCCS2(=O)=O)c1	400 nM
O=C(Nc1ccc(C(=O)N2CCN(CCN3CCN(c4cccc(C(F)(F)F)c4)CC3)CC2)cc1)c1cc(Cl)cc(Cl)c1	830 nM
COc1c(CN2CCCC2)cccc1-c1cc2c(-c3ccc(C(=O)O)c(C(C)C)c3)ccnc2[nH]1	440 nM
CN1CCN(c2cccc(NC(=O)c3ccc(-c4ccc(C#N)cc4)cc3)c2)CC1	1260 nM
Cc1ccc(S(=O)(=O)/N=C(\N)NC(N)=O)cc1	790 nM
CCOC(=O)N1CCN(CCCCCNc2cc(C)nc(/N=C(\N)Nc3ccc(Cl)cc3)n2)CC1	150 nM
Cc1cccc2[nH]c(-c3ccc(-c4cccc(NC(=O)Nc5ccc(Cl)c(Cl)c5)c4)s3)nc12	590 nM
Cc1cc(OCCCN2CCC(NS(=O)(=O)c3ccc(Cl)c(Cl)c3)C2)c2ccccc2n1 (stereo not drawn)	1050 nM
N#Cc1c(Cl)cccc1Oc1ccc(S(=O)(=O)N2CCC(CN3CCC(c4c[nH]c5ccccc45)CC3)CC2)cc1	750 nM
COc1ccc2nccc([C@@H](O)CN3CCC(NCc4cc5cccc6c5n(c4=O)CCC6)CC3)c2c1	860 nM
COc1ccc(-c2ccc(NC(=O)c3ccc(C#N)cc3)cc2)cc1CN1CCN(C)CC1	720 nM
O=C(Nc1ccc(Cl)c(Cl)c1)Nc1ccc2nccc(N3CCN(Cc4ccccc4)CC3)c2c1	160 nM
OC(Cn1ccnc1)(c1ccc(Cl)cc1Cl)C1CCCCC1 (stereo not drawn)	980 nM
Cc1[nH]c2cc(Cl)ccc2c1C1=CCN(CCN2CCOc3c(Br)cccc3C2=O)CC1	870 nM
Cc1ccc(C(C(=O)Nc2ccc(N3CCNCC3)c(Cl)c2)c2ccccc2)cc1 (stereo not drawn)	840 nM
c1cc(CNCc2ccc3c(c2)OCO3)cc(-c2cccc(CNc3ccc4ncccc4c3)c2)c1	760 nM
CN(C)c1ccc(CN2CCC(CNC(=O)c3cc(-c4ccccc4F)cs3)C2)cc1 (stereo not drawn)	910 nM
COc1cncc(/C=C/c2cncc(C(=O)NCCc3ccc(Cl)cc3Cl)c2)c1	880 nM
Cc1cc2ncn(-c3nccc(NCc4cccnc4)n3)c2cc1C	660 nM
CCOC(=O)NC1=NC(C)(C)N(OCc2ccc(Cl)c(Cl)c2)C(N)=N1	40 nM
O=C(Nc1cccc(C(F)(F)F)c1)Nc1ccc2nonc2c1	850 nM
O=C(Nc1ccc(-c2ccccc2)c(OCCN2CCNCC2)c1)c1ccc(-c2ccc(Cl)cc2)cc1	780 nM
COc1cc(NC(=O)NC(CCN2CCC3(CCc4ccccc43)CC2)c2ccc(Cl)c(Cl)c2)cc(OC)c1OC (stereo not drawn)	680 nM
CC(C)N1CCN(C(CN2CCN(CCCOc3cccc4ccccc34)CC2)c2ccc(F)cc2)CC1 (stereo not drawn)	880 nM

SMILES	IC50
COC(=O)c1cccc(CNCc2cccc(-c3cccc(-c4nc5ccc(F)cc5[nH]4)c3)c2)c1	130 nM
c1ccc(-c2[nH]ncc2Nc2ccnc3ccccc23)nc1	820 nM
COc1ccc(CN2CCC(CNCc3cccc(-c4ccccc4)c3)CC2)cc1	240 nM
O=C(Nc1ccc(-c2ccccc2)cc1)Nc1cccc(OCCN2CCCC2)c1	930 nM
COc1ccc2ncc(Cl)c([C@@H](O)CN3CCC(NCc4cc5c(cn4)OCCO5)CC3)c2c1	60 nM
CC(C)CNCc1ccc(-c2ccccc2CNC2CCN(Cc3ccccc3)CC2)cc1	570 nM
O=C(c1ccc(-c2ccccn2)s1)N1CCc2cc3nccc(N4CCN5CCC[C@H]5C4)c3cc21	760 nM
Cc1ccc(C(=O)Cn2nc(-c3ccc(C)c(S(=O)(=O)N4CCCC4)c3)ccc2=O)cc1	510 nM
O=C(NCCCCN1CCC(c2ccc3c(c2OCc2ccncc2)CCCC3)CC1)c1ccc(NC(=O)c2ccc(Cl)cc2)cc1	220 nM
COc1ccccc1C(=O)C1CCCN(C(=O)c2ccccc2C(F)(F)F)C1 (stereo not drawn)	600 nM
Cc1c(C(=O)N2CCCC(C(F)(F)F)C2)sc2cccc(F)c12 (stereo not drawn)	600 nM
CCOc1cc(C(=O)NC2CC(C)(C)N(C)C(C)(C)C2)ccc1-c1nc2cc(Cl)c(Cl)cc2[nH]1	860 nM
COc1ccc(CN(C2CC2)C(C)C(=O)c2[nH]c(C)c(C(C)=O)c2C)cc1 (stereo not drawn)	1590 nM
COc1ccc2nccc([C@@H](O)CN3CCC(NC(=O)C(c4cc5ccccc5o4)N4CCN(Cc5ccccc5)CC4)CC3)c2c1 (stereo partly drawn)	160 nM
CCN(CC)CCCNc1nccc(N(C)c2ccc(NC(=O)Nc3cc(C(F)(F)F)ccc3F)cc2)n1	1050 nM
O=C(/C=C/c1ccc(Cl)c(Cl)c1)N1CCC(CN2CCC(Cc3c[nH]c4ccccc34)CC2)CC1	670 nM
O=C(CCCCCNC(=O)c1ccc(O)c(-c2ccc(Cl)c(Cl)c2)c1)NCc1cccc2ccccc12	760 nM
CN(C)CCNCc1ccc(-c2cccc(-c3nc4ccccc4[nH]3)c2)cc1	720 nM
c1csc(-c2ccc3c(c2)CC(NCc2c[nH]c4cnccc24)C3)c1 (stereo not drawn)	740 nM
Cc1ccc(C(=O)Nc2cccc(-c3ccc(N4CCN(C)CC4)nn3)c2)cc1[N+](=O)[O-]	330 nM
C=CC[C@H](C[C@H](O)[C@H](Cc1ccccc1)NC(=O)c1ccc(-c2cccnn2)cc1)C(=O)NC1CCCCC1	1190 nM
O=C(CSc1nc(-c2ccccc2Cl)ns1)Nc1ccc2c(c1)OCO2	990 nM
CS(=O)(=O)CCNCc1ccc(-c2ccc3c(Nc4ccc(Oc5ccccn5)cc4)ccnc3c2)o1	710 nM
CC(C)CNCc1cccc(-c2cccc(CNCCCN3CCN(C)CC3)c2)c1	1180 nM

SMILES	IC50
Cc1cccc2[nH]c(-c3ccc(-c4cccc(CN5CCN(c6ccc(C#N)cn6)CC5)c4)s3)nc12	1420 nM
O=C(/C=C/c1ccc(Cl)c(Cl)c1)NCCCCCN1CCCN(C(=O)Nc2cccc(Cl)c2)CC1	670 nM
CN(Cc1ccccc1)C(=O)CCNS(=O)(=O)c1cc(Br)cnc1N	1130 nM
COc1ccccc1CNC(=O)c1cc(OC)c(OC)cc1NC(=O)c1cccs1	1440 nM
CCN(CC)CCN(Cc1ccc(-c2ccc(C(F)(F)F)cc2)cc1)C(=O)Cn1c(CCc2ccccc2F)nc(=O)c2ccccc21	930 nM
Clc1ccc(NC(=NCCCCCCCN=C(Nc2ccc(Cl)cc2)Nc2ccc(Cl)cc2)Nc2ccc(Cl)cc2)cc1	320 nM
O=C(CCc1ccco1)NC1CCN(CC2(c3ccc(Cl)cc3)CCC2)CC1	1450 nM
CC(C)(C)c1ccc(C(=O)Nc2cccc(Nc3c(C(=O)NCc4cccc(C(F)(F)F)c4)cnc4c(O)cccc34)c2)cc1	1090 nM
CN(Cc1ccc(-c2ccc(C(F)(F)F)cc2)cc1)C(=O)Cn1c(CCc2cccc(F)c2F)cc(=O)c2ccc(OCC3CCCN3C)cc21 (stereo not drawn)	1070 nM
COc1cccc(-c2c(C#N)c(N)nc3c2c(C)nn3-c2ccccc2)c1O	280 nM
Cc1cccc2[nH]c(-c3cccc(-c4cccc(NC(=O)CN5CCN(C)CC5)c4)c3)nc12	530 nM
O=C(/C=C/c1ccc(Cl)c(Cl)c1)N1CCC(CN2CCC(c3c(Br)[nH]c4ccccc34)CC2)CC1	290 nM
COc1ccc(CCn2c(=N)c(C(=O)NCc3cccnc3)cc3c(=O)n4cccc(C)c4nc32)cc1	1400 nM
COc1ccc(-c2cnc3ccc(NC4CCC(O)CC4)nn23)cn1 (stereo not drawn)	710 nM
CCCCN1CC[C@@H](CCC(O)c2ccnc3ccc(OCCC(C)C)cc23)[C@@H](CC)C1 (stereo partly drawn)	990 nM
COc1cccc(Nc2c(C(N)=O)cnc3ccc(-c4ccccc4)cc23)c1	770 nM
CCNc1cc(C(=O)N[C@@H](Cc2ccccc2)[C@H](O)CN[C@@H](C)c2cccc(OC)c2)cc(N2CCCC2=O)c1	770 nM
CCOC(=O)/C(=N\OC(C(=O)OC(C)(C)C)c1ccccc1)c1csc(NC(c2ccccc2)(c2ccccc2)c2ccccc2)n1 (stereo not drawn)	1110 nM
Cc1ccccc1C1CCN(C2CCC(NC(=O)c3ccc4c(c3)-c3nocc3C(C)O4)CC2)CC1 (stereo not drawn)	1270 nM
CCCCCNc1nc(Nc2ccccc2C)nc2ccccc12	740 nM
NC1CCN(Cc2ccc(-c3cccc(-c4nc5ccccc5[nH]4)c3)cc2)C1 (stereo not drawn)	850 nM
